What was measured:
FGFR1 (h) = FGFR1 (h) (Homo sapiens, UniProt P11362); experiment: FGFR1 (enzymatic assay), TR-FRET; type: biochemical; settings: read-out: FGFR 1 pIC50 (converted)
Description: In a final reaction volume of 30 μL, FGFR1 (h) (25 ng/ml) was incubated with 50 mM HEPES pH 7.5, 6 mM MnCl2, 1 mM DTT, 0.1 mM Na3VO4, 0.01% Triton-X-100, 500 nM Btn-Flt3 and 5 μM ATP in the presence of compound (1% DMSO final). […] Time-Resolved Fluorescence Resonance Energy Transfer (TR-FRET) signal (ex340 nm. Em 620 nm, em 655 nm) was measured afterwards and results are expressed in RFU (Relative Fluorescence Units).

KDR (h) (VEGFR2) = KDR (h) (VEGFR2) (Homo sapiens, UniProt P35968); experiment: KDR (VEGFR2) (enzymatic assay), TR-FRET; type: biochemical
Chain of KDR (h) (VEGFR2) (P35968 20-1356): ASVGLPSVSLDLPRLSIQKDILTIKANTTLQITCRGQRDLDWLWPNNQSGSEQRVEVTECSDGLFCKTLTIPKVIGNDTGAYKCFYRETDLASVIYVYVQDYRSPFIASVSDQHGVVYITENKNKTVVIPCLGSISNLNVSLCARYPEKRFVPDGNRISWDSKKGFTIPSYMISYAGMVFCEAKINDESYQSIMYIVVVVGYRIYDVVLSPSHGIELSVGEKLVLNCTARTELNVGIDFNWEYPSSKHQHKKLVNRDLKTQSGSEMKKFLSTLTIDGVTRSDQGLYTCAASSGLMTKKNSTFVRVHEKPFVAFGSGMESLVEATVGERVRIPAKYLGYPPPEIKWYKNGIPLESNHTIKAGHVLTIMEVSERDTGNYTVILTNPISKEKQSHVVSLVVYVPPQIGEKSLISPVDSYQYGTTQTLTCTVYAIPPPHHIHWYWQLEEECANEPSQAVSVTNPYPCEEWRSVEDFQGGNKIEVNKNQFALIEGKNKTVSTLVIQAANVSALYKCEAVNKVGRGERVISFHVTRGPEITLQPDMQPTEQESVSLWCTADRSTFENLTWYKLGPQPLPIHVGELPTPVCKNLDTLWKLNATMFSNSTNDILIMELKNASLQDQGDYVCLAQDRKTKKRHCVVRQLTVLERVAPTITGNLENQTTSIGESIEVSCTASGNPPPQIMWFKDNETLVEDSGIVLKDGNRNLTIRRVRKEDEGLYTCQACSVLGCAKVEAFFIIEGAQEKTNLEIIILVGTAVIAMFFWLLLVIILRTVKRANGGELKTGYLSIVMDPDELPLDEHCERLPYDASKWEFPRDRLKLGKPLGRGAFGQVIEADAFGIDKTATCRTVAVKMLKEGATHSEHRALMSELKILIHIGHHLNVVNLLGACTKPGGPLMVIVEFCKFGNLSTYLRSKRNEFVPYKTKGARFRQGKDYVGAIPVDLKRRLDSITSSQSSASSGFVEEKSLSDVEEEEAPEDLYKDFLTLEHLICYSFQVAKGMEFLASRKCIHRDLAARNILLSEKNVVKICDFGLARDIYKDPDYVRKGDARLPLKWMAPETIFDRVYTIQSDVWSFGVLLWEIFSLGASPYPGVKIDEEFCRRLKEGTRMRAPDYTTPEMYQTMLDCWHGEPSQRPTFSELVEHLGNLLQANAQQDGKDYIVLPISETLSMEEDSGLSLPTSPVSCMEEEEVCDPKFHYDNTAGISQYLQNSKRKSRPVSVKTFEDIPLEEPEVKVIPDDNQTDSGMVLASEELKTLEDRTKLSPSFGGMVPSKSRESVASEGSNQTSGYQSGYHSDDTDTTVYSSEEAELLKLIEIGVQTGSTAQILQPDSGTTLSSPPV
Description: KDR (VEGFR2) (Enzymatic Assay)
In a final reaction volume of 30 μL, KDR (h) (150 ng/ml) was incubated with 50 mM HEPES pH 7.5, 6 mM MnCl2, 1 mM DTT, 0.1 mM Na3VO4, 0.01% Triton-X-100, 500 nM Btn-Flt3 and 3 μM ATP in the presence of compound (1% DMSO final). After incubation for 120 minutes at room temperature the reaction was stopped with 2.27 nM EU-anti P-Tyr, 7 mM EDTA, 31.25 nM SA-XL-665 and 0.02% BSA which was present for 60 minutes at room temperature. Time-Resolved Fluorescence Resonance Energy Transfer (TR-FRET) signal (ex340 nm. Em 620 nm, em 655 nm) was measured afterwards and results are expressed in RFU (Relative Fluorescence Units).

[1] = target: Ba/F3-FGFR3-transfected cells (Homo sapiens, UniProt P22607); experiment: Ba/F3-FGFR3 (minus IL3) cellular proliferation assay, Alamar Blue; type: cell-based; settings: minus IL3, 384 well
Chain of Ba/F3-FGFR3-transfected cells (P22607 whole entry, change not shown): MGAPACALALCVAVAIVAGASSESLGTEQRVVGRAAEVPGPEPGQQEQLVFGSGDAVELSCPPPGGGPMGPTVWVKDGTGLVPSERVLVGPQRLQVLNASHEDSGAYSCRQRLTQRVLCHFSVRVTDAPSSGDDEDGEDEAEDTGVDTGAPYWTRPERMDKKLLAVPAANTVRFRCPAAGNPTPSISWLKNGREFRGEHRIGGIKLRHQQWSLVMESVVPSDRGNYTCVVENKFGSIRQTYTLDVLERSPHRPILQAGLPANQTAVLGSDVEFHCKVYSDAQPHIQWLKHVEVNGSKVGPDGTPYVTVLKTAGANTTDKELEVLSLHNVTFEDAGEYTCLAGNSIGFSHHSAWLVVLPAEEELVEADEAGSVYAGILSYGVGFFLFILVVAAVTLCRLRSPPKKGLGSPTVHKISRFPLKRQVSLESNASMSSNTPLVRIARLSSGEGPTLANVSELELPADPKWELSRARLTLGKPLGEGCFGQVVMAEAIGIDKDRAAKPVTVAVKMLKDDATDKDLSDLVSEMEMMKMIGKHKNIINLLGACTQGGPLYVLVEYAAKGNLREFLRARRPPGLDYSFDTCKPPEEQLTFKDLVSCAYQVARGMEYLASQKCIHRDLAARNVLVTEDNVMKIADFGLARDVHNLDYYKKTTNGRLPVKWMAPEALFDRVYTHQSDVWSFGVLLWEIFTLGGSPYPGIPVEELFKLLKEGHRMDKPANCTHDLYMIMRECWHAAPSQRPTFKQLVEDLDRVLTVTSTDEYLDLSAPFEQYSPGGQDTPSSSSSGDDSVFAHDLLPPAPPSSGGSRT
Description: Ba/F3-FGFR3 (Minus IL3 or Plus IL3) (Cellular Proliferation Assay)
Cells were put in an incubator at 37° C. and 5% CO2. After 24 hours, 10 μl of Alamar Blue solution (0.5 mM K3Fe(CN)6, 0.5 mM KaFe(CN)6, 0.15 mM Resazurin and 100 mM Phosphate Buffer) was added to the wells, incubated for 4 hours at 37° C. and 5% CO2 before RFU's (Relative Fluorescence Units) (ex. 540 nm., em. 590 nm.) were measured in a flurorescence plate reader. […]
(§1) In a 96 well plate, 180 μl cell culture medium (phenol red free RPMI-1640, 10% FBS, 2 mM L-Glutamine and 50 μg/ml Gentamycin) containing 10000 cells per well of Ba/F3-FGFR3-transfected cells were pipette and 20 μl of compound dilution in DMSO was added. Cells were put in an incubator at 37° C. and 5% CO2. After 24 hours, 40 μl of Alamar Blue solution (0.5 mM K3Fe(CN)6, 0.5 mM KaFe(CN)6, 0.15 mM Resazurin and 100 mM Phosphate Buffer) was added to the wells, incubated for 4 hours at 37° C. and 5% CO2 before RFU's (Relative Fluorescence Units) (ex. 540 nm., em. 590 nm.) were measured in a flurorescence plate reader.

[2] = target: Ba/F3-KDR-transfected cells (Homo sapiens, UniProt P35968); experiment: Ba/F3-KDR (minus IL3) cellular proliferation assay, Alamar Blue; type: cell-based
Chain of Ba/F3-KDR-transfected cells (P35968 whole entry, change not shown): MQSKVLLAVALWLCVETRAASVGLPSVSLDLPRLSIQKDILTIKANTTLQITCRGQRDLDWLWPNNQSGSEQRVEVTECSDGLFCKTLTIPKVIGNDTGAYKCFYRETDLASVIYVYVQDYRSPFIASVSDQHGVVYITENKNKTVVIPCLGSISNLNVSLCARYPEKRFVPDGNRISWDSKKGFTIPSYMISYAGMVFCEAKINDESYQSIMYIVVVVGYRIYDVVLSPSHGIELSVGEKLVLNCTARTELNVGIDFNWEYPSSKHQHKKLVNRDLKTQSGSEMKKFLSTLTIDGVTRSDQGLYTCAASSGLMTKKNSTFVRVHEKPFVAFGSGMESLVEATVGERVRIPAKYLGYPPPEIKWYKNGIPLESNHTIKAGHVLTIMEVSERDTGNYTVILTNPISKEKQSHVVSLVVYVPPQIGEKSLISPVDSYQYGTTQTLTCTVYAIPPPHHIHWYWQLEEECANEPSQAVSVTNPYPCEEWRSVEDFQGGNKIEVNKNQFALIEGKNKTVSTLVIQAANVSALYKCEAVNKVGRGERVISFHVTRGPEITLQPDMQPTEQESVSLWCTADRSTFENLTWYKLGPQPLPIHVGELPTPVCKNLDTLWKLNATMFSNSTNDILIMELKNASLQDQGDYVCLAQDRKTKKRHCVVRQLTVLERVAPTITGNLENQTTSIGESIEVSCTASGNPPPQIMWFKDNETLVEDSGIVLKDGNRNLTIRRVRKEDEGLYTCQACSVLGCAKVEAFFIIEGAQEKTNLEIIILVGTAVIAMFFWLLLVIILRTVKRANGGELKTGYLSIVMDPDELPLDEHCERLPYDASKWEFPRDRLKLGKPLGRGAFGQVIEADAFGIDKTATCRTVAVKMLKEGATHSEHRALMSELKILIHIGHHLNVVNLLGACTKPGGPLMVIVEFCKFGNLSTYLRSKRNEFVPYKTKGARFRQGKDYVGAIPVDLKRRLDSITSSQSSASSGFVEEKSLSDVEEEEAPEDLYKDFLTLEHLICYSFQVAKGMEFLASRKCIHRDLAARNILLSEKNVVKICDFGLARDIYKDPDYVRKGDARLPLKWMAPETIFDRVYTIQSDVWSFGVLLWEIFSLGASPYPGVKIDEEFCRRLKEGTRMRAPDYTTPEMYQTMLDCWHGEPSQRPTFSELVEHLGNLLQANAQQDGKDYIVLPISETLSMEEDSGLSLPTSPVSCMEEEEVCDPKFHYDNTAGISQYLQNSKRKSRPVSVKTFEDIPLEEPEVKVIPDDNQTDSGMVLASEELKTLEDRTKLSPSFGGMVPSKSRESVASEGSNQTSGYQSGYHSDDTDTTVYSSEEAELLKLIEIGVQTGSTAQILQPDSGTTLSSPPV
Description: Ba/F3-KDR (Minus IL3 or Plus IL3) (Cellular Proliferation Assay)
as §1, with “a 384” for “a 96”, “plate, 100 nl of compound dilution in DMSO was sprayed before adding 50” for “plate, 180”, “containing 20000” for “containing 10000”, “of Ba/F3-KDR-transfected cells.” for “of Ba/F3-FGFR3-transfected cells were pipette and 20 μl of compound dilution in DMSO was added.”, “hours, 10” for “hours, 40”
As a counterscreen the same experiment was performed in the presence of 10 ng/ml murine IL3.
as §1, with “Ba/F3-KDR-transfected” for “Ba/F3-FGFR3-transfected”, “CO2” for “CO2 before”

Chain of FGFR1 (h) (P11362 22-822): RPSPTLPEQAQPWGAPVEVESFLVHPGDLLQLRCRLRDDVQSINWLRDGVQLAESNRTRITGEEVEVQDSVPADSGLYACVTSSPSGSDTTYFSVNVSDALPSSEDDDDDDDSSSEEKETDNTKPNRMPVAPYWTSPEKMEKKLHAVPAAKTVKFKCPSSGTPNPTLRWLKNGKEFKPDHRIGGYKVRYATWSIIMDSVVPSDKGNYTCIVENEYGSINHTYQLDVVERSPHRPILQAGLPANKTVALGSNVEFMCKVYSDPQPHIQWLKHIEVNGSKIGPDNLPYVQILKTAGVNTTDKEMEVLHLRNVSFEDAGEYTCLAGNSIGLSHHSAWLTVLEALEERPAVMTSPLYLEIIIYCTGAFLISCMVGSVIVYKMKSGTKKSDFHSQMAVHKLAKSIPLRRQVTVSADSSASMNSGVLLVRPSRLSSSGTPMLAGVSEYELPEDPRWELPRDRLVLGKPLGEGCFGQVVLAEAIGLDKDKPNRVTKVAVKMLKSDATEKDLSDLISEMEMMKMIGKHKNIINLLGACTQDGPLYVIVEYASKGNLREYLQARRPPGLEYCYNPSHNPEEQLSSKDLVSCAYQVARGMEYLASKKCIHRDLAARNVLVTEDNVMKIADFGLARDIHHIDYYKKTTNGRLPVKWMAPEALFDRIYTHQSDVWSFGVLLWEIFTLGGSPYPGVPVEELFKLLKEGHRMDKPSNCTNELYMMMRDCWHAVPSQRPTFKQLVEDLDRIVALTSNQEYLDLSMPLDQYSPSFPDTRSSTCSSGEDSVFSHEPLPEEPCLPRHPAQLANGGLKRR

## COc1cc(OC)cc(N(CCN2CCNCC2)c2ccc3ncc(-c4ccc(N)nc4)nc3c2)c1 [Compound 59]
FGFR1 (h)
  IC50: 0.00363 µM
KDR (h) (VEGFR2)
  IC50: 0.0457 µM
[1]
  BAF3-FGFR 3 (MIN IL3) 384 well pIC50: 5.9
[2]; minus IL3
  BAF3-KDR (MIN IL3) 384 well pIC50: 5.66
other
  melting point: 111 °C

## COc1cc(OC)cc(N(CCCNCC(F)(F)F)c2ccc3ncc(-c4ccn(C)c4)nc3c2)c1 [Compound 5]
FGFR1 (h)
  IC50: 0.00692 µM
KDR (h) (VEGFR2)
  IC50: 0.126 µM
[1]
  BAF3-FGFR 3 (MIN IL3) 384 well pIC50: 6.57
[2]; minus IL3
  BAF3-KDR (MIN IL3) 384 well pIC50: 5.07

## COc1cc(OC)cc(N(CCCO)c2ccc3ncc(-c4cccnc4F)nc3c2)c1 [Compound 149]
FGFR1 (h)
  IC50: 0.0603 µM
KDR (h) (VEGFR2)
  IC50: > 1 µM
[1]
  BAF3-FGFR 3 (MIN IL3) 384 well pIC50: 5.32
[2]; minus IL3
  BAF3-KDR (MIN IL3) 384 well pIC50: <5
other
  melting point: 115 °C

## COc1cc(OC)cc(N(CCCNC(C)C)c2ccc3ncc(-c4ccnc(NC(=O)OC(C)(C)C)c4)nc3c2)c1 [Compound 137]
FGFR1 (h)
  IC50: 0.00372 µM
KDR (h) (VEGFR2)
  IC50: 0.275 µM
[1]
  BAF3-FGFR 3 (MIN IL3) 384 well pIC50: ~5.83
[2]; minus IL3
  BAF3-KDR (MIN IL3) 384 well pIC50: 5.67
other
  melting point: 172 °C

## COc1cc(OC)cc(N(CCO)c2ccc3ncc(N4CCC(CN)CC4)nc3c2)c1 [Compound 84]
FGFR1 (h)
  IC50: 0.0447 µM
KDR (h) (VEGFR2)
  IC50: > 1 µM
[1]
  BAF3-FGFR 3 (MIN IL3) 384 well pIC50: <5
[2]; minus IL3
  BAF3-KDR (MIN IL3) 384 well pIC50: <5
other
  melting point: 159 °C

## COc1cc(OC)cc(N(CCCO)c2ccc3ncc(-c4cnc(N5CCN(C)CC5)c(C)c4)nc3c2)c1 [Compound 135]
FGFR1 (h)
  IC50: 0.002 µM
KDR (h) (VEGFR2)
  IC50: 0.17 µM
[1]
  BAF3-FGFR 3 (MIN IL3) 384 well pIC50: 6.3
[2]; minus IL3
  BAF3-KDR (MIN IL3) 384 well pIC50: 5.33
other
  melting point: 179 °C

## COc1cc(OC)cc(N(CCCO)c2ccc3ncc(-c4ccnc(-c5ccnc(Cl)c5)c4)nc3c2)c1 [Compound 133]
FGFR1 (h)
  IC50: 0.11 µM
KDR (h) (VEGFR2)
  IC50: > 1 µM
[1]
  BAF3-FGFR 3 (MIN IL3) 384 well pIC50: <5
[2]; minus IL3
  BAF3-KDR (MIN IL3) 384 well pIC50: <5
other
  melting point: 172 °C

## COc1cc(OC)cc(N(CCCNCC(F)(F)F)c2ccc3ncc(-c4ccnc(C(=O)NCCCN)c4)nc3c2)c1 [Compound 148]
FGFR1 (h)
  IC50: 0.0363 µM
KDR (h) (VEGFR2)
  IC50: > 1 µM
[1]
  BAF3-FGFR 3 (MIN IL3) 384 well pIC50: <5
[2]; minus IL3
  BAF3-KDR (MIN IL3) 384 well pIC50: <5
other
  melting point: 87 °C

## COCC(CN(c1cc(OC)cc(OC)c1)c1ccc2ncc(-c3cccnc3)nc2c1)OC(C)=O (single isomer, unassigned) [Compound 52]
FGFR1 (h)
  IC50: 0.0871 µM
KDR (h) (VEGFR2)
  IC50: > 1 µM
[1]
  BAF3-FGFR 3 (MIN IL3) 384 well pIC50: ~6.17
[2]; minus IL3
  BAF3-KDR (MIN IL3) 384 well pIC50: <5

## COc1cc(OC)cc(N(CCO)c2ccc3ncc(-n4cnc(CO)c4)nc3c2)c1 [Compound 38]
FGFR1 (h)
  IC50: 0.0151 µM
KDR (h) (VEGFR2)
  IC50: 0.708 µM
[1]
  BAF3-FGFR 3 (MIN IL3) 384 well pIC50: 6.23
[2]; minus IL3
  BAF3-KDR (MIN IL3) 384 well pIC50: <5
other
  melting point: 215 °C

## COc1cc(OC)cc(N(CCO)c2ccc3ncc(-c4ccc(N5CCOCC5)nc4)nc3c2)c1 [Compound 19]
FGFR1 (h)
  IC50: 0.00389 µM
KDR (h) (VEGFR2)
  IC50: 0.17 µM
[1]
  BAF3-FGFR 3 (MIN IL3) 384 well pIC50: 6.17
[2]; minus IL3
  BAF3-KDR (MIN IL3) 384 well pIC50: <5
other
  melting point: 193 °C

## COc1cc(OC)cc(N(CC2CC2)c2ccc3ncc(-c4ccc5c(c4)OCO5)nc3c2)c1 [Compound 87]
FGFR1 (h)
  IC50: 0.617 µM
KDR (h) (VEGFR2)
  IC50: > 10 µM
[1]
  BAF3-FGFR 3 (MIN IL3) 384 well pIC50: <5.4
[2]; minus IL3, 384 well
  BAF3-KDR (MIN IL3) 384 well pIC50: <5.4
other
  melting point: 144 °C

## COc1cc(OC)cc(N(CCCO)c2ccc3ncc(-c4ccnc(Cl)c4)nc3c2)c1 [Compound 136]
FGFR1 (h)
  IC50: 0.024 µM
KDR (h) (VEGFR2)
  IC50: 0.776 µM
[1]
  BAF3-FGFR 3 (MIN IL3) 384 well pIC50: 5.71
[2]; minus IL3
  BAF3-KDR (MIN IL3) 384 well pIC50: <5
other
  melting point: 175 °C

## COc1cc(OC)cc(N(CCNC(C)C)c2ccc3ncc(-c4ccnc(C(=O)NCCCN)c4)nc3c2)c1 [Compound 146]
FGFR1 (h)
  IC50: 0.002 µM
KDR (h) (VEGFR2)
  IC50: 0.269 µM
[1]
  BAF3-FGFR 3 (MIN IL3) 384 well pIC50: 6.41
[2]; minus IL3
  BAF3-KDR (MIN IL3) 384 well pIC50: <5

## COc1cc(OC)cc(N(CCO)c2ccc3ncc(-c4ccnc(C(=O)NCCCCCN)c4)nc3c2)c1 [Compound 138]
FGFR1 (h)
  IC50: 0.0229 µM
KDR (h) (VEGFR2)
  IC50: 0.759 µM
[1]
  BAF3-FGFR 3 (MIN IL3) 384 well pIC50: 5.04
[2]; minus IL3
  BAF3-KDR (MIN IL3) 384 well pIC50: <5

## COc1cc(OC)cc(N(CC#Cc2ncccn2)c2ccc3ncc(-c4cccnc4)nc3c2)c1 [Compound 2]
FGFR1 (h)
  IC50: 0.0832 µM
KDR (h) (VEGFR2)
  IC50: > 1 µM
[1]
  BAF3-FGFR 3 (MIN IL3) 384 well pIC50: 7.13
[2]; minus IL3
  BAF3-KDR (MIN IL3) 384 well pIC50: <5
other
  melting point: 184 °C

## COc1cc(OC)cc(N(CCCNC(C)C)c2ccc3ncc(-c4ccnc(NC(=O)NC(C)C)c4)nc3c2)c1 [Compound 131]
FGFR1 (h)
  IC50: 0.00209 µM
KDR (h) (VEGFR2)
  IC50: 0.2 µM
[1]
  BAF3-FGFR 3 (MIN IL3) 384 well pIC50: 6.08
[2]; minus IL3
  BAF3-KDR (MIN IL3) 384 well pIC50: 5.37
other
  melting point: 155 °C

## COc1cc(OC)cc(N(CCCO)c2ccc3ncc(-c4ccnc(C(=O)N5CCOCC5)c4)nc3c2)c1 [Compound 43]
FGFR1 (h)
  IC50: 0.0158 µM
KDR (h) (VEGFR2)
  IC50: 0.245 µM
[1]
  BAF3-FGFR 3 (MIN IL3) 384 well pIC50: 6.25
[2]; minus IL3
  BAF3-KDR (MIN IL3) 384 well pIC50: 5.07
other
  melting point: 190 °C

## COc1cc(OC)cc(N(CCCNCC(F)(F)F)c2ccc3ncc(-c4ccnc(F)c4)nc3c2)c1 [Compound 144]
FGFR1 (h)
  IC50: 0.0741 µM
KDR (h) (VEGFR2)
  IC50: > 1 µM
[1]
  BAF3-FGFR 3 (MIN IL3) 384 well pIC50: 5.1
[2]; minus IL3
  BAF3-KDR (MIN IL3) 384 well pIC50: <5
other
  melting point: 128 °C

## COc1cc(OC)cc(N(CCCNCC(=O)O)c2ccc3ncc(-c4ccnc(C(=O)NCCCCN)c4)nc3c2)c1 [Compound 44]
FGFR1 (h)
  IC50: 0.0174 µM
KDR (h) (VEGFR2)
  IC50: 0.302 µM
[1]
  BAF3-FGFR 3 (MIN IL3) 384 well pIC50: <5
[2]; minus IL3
  BAF3-KDR (MIN IL3) 384 well pIC50: <5
other
  melting point: 64 °C

## COc1cc(OC)cc(N(CCCNCCCO)c2ccc3ncc(-c4ccnc(C(=O)NCCCCN)c4)nc3c2)c1 [Compound 132]
FGFR1 (h)
  IC50: 0.00437 µM
KDR (h) (VEGFR2)
  IC50: 0.309 µM
[1]
  BAF3-FGFR 3 (MIN IL3) 384 well pIC50: 5.57
[2]; minus IL3
  BAF3-KDR (MIN IL3) 384 well pIC50: 5.04

## COc1cc(OC)cc(N(CCCO)c2ccc3ncc(-c4ccnc(C(=O)NCCCCCN)c4)nc3c2)c1 [Compound 130]
FGFR1 (h)
  IC50: 0.0174 µM
KDR (h) (VEGFR2)
  IC50: 0.55 µM
[1]
  BAF3-FGFR 3 (MIN IL3) 384 well pIC50: 5.2
[2]; minus IL3
  BAF3-KDR (MIN IL3) 384 well pIC50: <5
other
  melting point: 161 °C

## COc1cc(OC)cc(N(CCCNC(C)C)c2ccc3ncc(-c4ccnc(N)c4)nc3c2)c1 [Compound 143]
FGFR1 (h)
  IC50: 0.00105 µM
KDR (h) (VEGFR2)
  IC50: 0.0525 µM
[1]
  BAF3-FGFR 3 (MIN IL3) 384 well pIC50: 6.4
[2]; minus IL3
  BAF3-KDR (MIN IL3) 384 well pIC50: 5.33
